From patent US20200131144A1, “AMINE OR (THIO)AMIDE CONTAINING LXR MODULATORS” (Phenex-FXR GmbH, priority 2017, published 2020)
Several values for one entry are separate records, joined by “and”; a condition that tells them apart may be missing. Equal entries are not always repeated.

Columns and labels:
[1] = target: T1, GST-LXRβ ligand-binding domain (Homo sapiens, UniProt P55055, INS174Q); assay: TR-FRETβ activity assay (NCoA3 coactivator peptide recruitment); format: biochemical; settings: 1 μM 24(S)-25-epoxycholesterol as prestimulating agonist; inverse agonist unless *
T1 construct: amino acids 156-461; NP009052; made in house; host or cells: E. coli
T1 sequence (P55055 with tags, fused parts or gaps INS174Q limits assumed): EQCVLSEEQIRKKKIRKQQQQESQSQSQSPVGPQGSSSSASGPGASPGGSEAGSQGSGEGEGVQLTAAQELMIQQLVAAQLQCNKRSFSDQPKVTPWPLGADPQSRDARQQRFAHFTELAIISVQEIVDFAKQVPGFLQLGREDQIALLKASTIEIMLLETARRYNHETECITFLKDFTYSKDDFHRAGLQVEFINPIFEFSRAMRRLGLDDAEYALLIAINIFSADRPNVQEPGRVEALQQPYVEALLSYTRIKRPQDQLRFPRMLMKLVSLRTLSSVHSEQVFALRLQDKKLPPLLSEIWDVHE
How it was run: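 E. coli-expressed GST-LXRβ LBD (aa 156-461, 76 nM) with biotinylated NCoA3 peptide (400 nM), anti-GST-Tb cryptate donor and streptavidin-XL665 acceptor in 240 mM KCl, BSA, 0.002% Triton X-100. Equilibrated 1 h at 4° C; TR-FRET read at 615/665 nm, triplicates.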

LXRα full length (FL) = target: T2, LXRα full length (FL) (Homo sapiens, UniProt Q13133); assay: LXR Gal4 reporter transient transfection assay, mammalian two-hybrid, FL-M2H Gal4α; format: cell-based; settings: HEK293 cells; inverse agonist unless *
T2 construct: the full length (FL) proteins of LXRα (amino acids 1-447); NP005684; expressed in transfected cells; host or cells: HEK293
T2 sequence (Q13133 1-447): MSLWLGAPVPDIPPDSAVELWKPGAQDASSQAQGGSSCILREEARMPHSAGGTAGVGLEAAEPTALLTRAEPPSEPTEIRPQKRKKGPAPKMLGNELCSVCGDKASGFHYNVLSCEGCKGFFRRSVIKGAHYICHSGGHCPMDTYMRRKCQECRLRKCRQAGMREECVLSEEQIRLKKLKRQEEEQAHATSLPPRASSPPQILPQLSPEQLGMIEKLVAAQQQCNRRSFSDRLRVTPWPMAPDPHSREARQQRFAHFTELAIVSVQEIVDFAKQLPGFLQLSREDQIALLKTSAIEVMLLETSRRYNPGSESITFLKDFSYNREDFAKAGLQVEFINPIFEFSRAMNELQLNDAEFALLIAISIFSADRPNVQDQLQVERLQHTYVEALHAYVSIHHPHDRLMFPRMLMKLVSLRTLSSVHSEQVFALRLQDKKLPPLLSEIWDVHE
How it was run: (§1)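 HEK293 cells transiently cotransfected with NFkB-AD fusions of full-length or LBD LXRα/β, GAL4-DBD fusions of SRC1 coactivator or NCoR corepressor domains, GAL4-driven firefly luciferase and Renilla control. Compound added 4 h post-transfection (≤0.2% DMSO), 16 h incubation; firefly and Renilla luminescence read sequentially.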

LXRβ full length (FL) = target: T3, LXRβ full length (FL) (Homo sapiens, UniProt P55055, INS174Q); assay: LXR Gal4 reporter transient transfection assay, mammalian two-hybrid, FL-M2H Gal4β; format: cell-based; settings: HEK293 cells; inverse agonist unless *
T3 construct: the full length (FL) proteins of LXRα (amino acids 1-447); NP005684; NP009052; expressed in transfected cells; host or cells: HEK293
T3 sequence (P55055 with tags, fused parts or gaps INS174Q): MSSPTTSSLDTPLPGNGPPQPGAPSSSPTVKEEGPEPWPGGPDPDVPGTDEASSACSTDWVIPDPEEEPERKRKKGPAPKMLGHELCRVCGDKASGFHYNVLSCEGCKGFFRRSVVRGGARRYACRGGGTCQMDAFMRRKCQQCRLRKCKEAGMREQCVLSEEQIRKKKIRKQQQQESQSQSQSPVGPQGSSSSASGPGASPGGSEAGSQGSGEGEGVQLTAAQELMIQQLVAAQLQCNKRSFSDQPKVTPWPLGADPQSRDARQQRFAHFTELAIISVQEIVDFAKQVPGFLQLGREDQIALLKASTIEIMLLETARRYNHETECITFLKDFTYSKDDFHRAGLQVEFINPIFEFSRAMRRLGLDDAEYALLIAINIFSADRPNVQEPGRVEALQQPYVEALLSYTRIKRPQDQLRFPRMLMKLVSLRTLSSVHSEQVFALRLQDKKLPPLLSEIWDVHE
How it was run: as §1

SMILES: Cc1c(C(=O)N(Cc2ccc(-c3cccc(C(C)(C)C(=O)O)c3)cc2)Cc2ccc(C(F)(F)F)o2)c2ccccc2n(C)c1=O [27/94]
- EC50 [1]: 0.1 to 1 µM
- EC50 (LXRα full length (FL)): < 0.1 µM
- EC50 (LXRβ full length (FL)): < 0.1 µM

SMILES: Cc1nc2cccnc2c(CN(Cc2ccc(-c3cccc(C(C)(C)C(=O)O)c3)cc2)Cc2ccc(C(F)(F)F)o2)c1C [27/133]
- FRETβ [1]: C*
- EC50 (LXRα full length (FL)): < 0.1 µM
- EC50 (LXRβ full length (FL)): < 0.1 µM

SMILES: COc1ccc2c(CN(Cc3ccc(-c4cccc(C(C)(C)C(=O)O)c4)cc3)Cc3ccc(C(F)(F)F)o3)cc(C)cc2c1 [27/24]
- EC50 [1]: 1 to 10 µM
- EC50 (LXRα full length (FL)): 0.1 to 1 µM
- EC50 (LXRβ full length (FL)): < 0.1 µM

SMILES: Cc1nc2cccnc2c(C(=O)N(Cc2ccc(C(F)(F)F)o2)Cc2ccc(-c3cccc(C(C)(C)C(=O)O)c3)cc2F)c1C [27/114]
- EC50 [1]: 0.1 to 1 µM
- EC50 (LXRα full length (FL)): < 0.1 µM
- EC50 (LXRβ full length (FL)): < 0.1 µM

SMILES: Cc1cc(C)c(CN(Cc2ccc(-c3cccc(S(=O)(=O)CC(=O)O)c3)cc2)Cc2ccc(C(F)(F)F)o2)c(C)c1C [27/34]
- EC50 [1]: 1 to 10 µM
- EC50 (LXRα full length (FL)): 1 to 10 µM
- EC50 (LXRβ full length (FL)): 0.1 to 1 µM

SMILES: Cc1nc2cccnc2c(C(=O)N(Cc2ccc(-c3cc(F)cc(C4(C(=O)O)CC4)c3)cc2)Cc2ccc(C(F)(F)F)o2)c1C [27/113]
- EC50 [1]: 0.1 to 1 µM
- EC50 (LXRα full length (FL)): < 0.1 µM
- EC50 (LXRβ full length (FL)): < 0.1 µM

SMILES: COc1ncc(CN(Cc2ccc(-c3cccc(C(C)(C)C(=O)O)c3)cc2)Cc2ccc(C(F)(F)F)o2)c2ccccc12 [27/19]
- EC50 [1]: 0.1 to 1 µM
- EC50 (LXRα full length (FL)): < 0.1 µM
- EC50 (LXRβ full length (FL)): < 0.1 µM

SMILES: Cc1cc(C)c(CN(Cc2ccc(-c3cccc(S(=O)(=O)CC(=O)O)c3)cc2)Cc2cccc(C(F)(F)F)c2)c(C)c1 [7/14]
- EC50 [1]: 1 to 10 µM
- EC50 (LXRα full length (FL)): 1 to 10 µM
- EC50 (LXRβ full length (FL)): 0.1 to 1 µM

SMILES: Cc1ccc2ccccc2c1C(=O)N(Cc1ccc(C(F)(F)F)o1)Cc1c(F)cc(-c2cccc(C(C)(C)C(=O)O)c2)cc1Cl [27/6]
- EC50 [1]: < 0.1 µM
- EC50 (LXRα full length (FL)): < 0.1 µM
- EC50 (LXRβ full length (FL)): < 0.1 µM

SMILES: Cc1cc(C(=O)N(Cc2ccc(-c3cccc(C(C)(C)C(=O)O)c3)cc2)Cc2ccc(C(F)(F)F)o2)c2ccc(F)cc2n1 [27/127]
- EC50 [1]: 1 to 10 µM
- EC50 (LXRα full length (FL)): 0.1 to 1 µM
- EC50 (LXRβ full length (FL)): 0.1 to 1 µM

SMILES: Cc1ccc2ccccc2c1C(=O)N(Cc1ccc(-c2cccc(C(C)(C)CC(=O)O)c2)cc1)Cc1ccc(C(F)(F)F)o1 [27/9]
- EC50 [1]: 0.1 to 1 µM
- EC50 (LXRα full length (FL)): < 0.1 µM
- EC50 (LXRβ full length (FL)): < 0.1 µM

SMILES: Cc1cc(F)cc(C)c1C(=O)N(Cc1ccc(-c2cccc(C(C)(C)C(=O)O)c2)cc1)Cc1ccc(C(F)(F)F)o1 [27/49]
- EC50 [1]: 0.1 to 1 µM
- EC50 (LXRα full length (FL)): < 0.1 µM
- EC50 (LXRβ full length (FL)): < 0.1 µM

SMILES: Cc1ccc2ccccc2c1C(=O)N(Cc1ccc(-c2cccc(S(=O)(=O)Cc3nnn[nH]3)c2)cc1)Cc1ccc(C(F)(F)F)o1 [Example 30, N-((3′-(((1H-Tetrazol-5-yl)methyl)sulfonyl)-1,1′-biphenyl-4-yl)methyl)-2-methyl-N-((5-(trifluoromethyl)furan-2-yl)methyl)-1-naphthamide]
- EC50 [1]: 0.1 to 1 µM
- EC50 (LXRα full length (FL)): 0.1 to 1 µM
- EC50 (LXRβ full length (FL)): 0.1 to 1 µM

SMILES: COc1cc(-c2cc(F)c(CO)c(S(=O)(=O)CC(=O)O)c2)ccc1CN(Cc1ccc(C(F)(F)F)o1)Cc1c(C)ccc2ccccc12 [22/9]
- EC50 [1]: 1 to 10 µM
- EC50 (LXRα full length (FL)): 0.1 to 1 µM
- EC50 (LXRβ full length (FL)): < 0.1 µM

SMILES: CC12CC3(C)CC(C)(C1)CC(C(=O)N(Cc1ccc(-c4cccc(C(C)(C)C(=O)O)c4)cc1)Cc1ccc(C(F)(F)F)o1)(C2)C3 [27/51]
- FRETβ [1]: B*
- EC50 (LXRα full length (FL)): 0.1 to 1 µM
- EC50 (LXRβ full length (FL)): 0.1 to 1 µM

SMILES: Cc1cc(C)c(C(=O)N(Cc2ccc(-c3cc(F)c(CO)c(S(=O)(=O)CC(=O)O)c3)cc2)Cc2ccc(C(F)(F)F)o2)c(C)c1 [22/13]
- EC50 [1]: 1 to 10 µM
- EC50 (LXRα full length (FL)): 0.1 to 1 µM
- EC50 (LXRβ full length (FL)): 0.1 to 1 µM

SMILES: Cc1nc2ccccc2c(C(=O)N(Cc2ccc(C(F)(F)F)o2)Cc2ccc(-c3cccc(C(C)(C)C(=O)O)c3)cc2C#N)c1C [27/105]
- EC50 [1]: 0.1 to 1 µM
- EC50 (LXRα full length (FL)): < 0.1 µM
- EC50 (LXRβ full length (FL)): < 0.1 µM

SMILES: Cc1ccc2ccccc2c1C(=O)N(Cc1ccc(-c2cccc(C(C)(N)C(=O)O)c2)cc1)Cc1ccc(C(F)(F)F)o1 (stereo not drawn) [27/74]
- EC50 [1]: 0.1 to 1 µM
- EC50 (LXRα full length (FL)): 0.1 to 1 µM
- EC50 (LXRβ full length (FL)): < 0.1 µM

SMILES: Cc1cc(C)c(CN(Cc2ccc(-c3cccc(S(=O)(=O)CC(=O)NS(C)(=O)=O)c3)cc2)Cc2ccc(C(F)(F)F)o2)c(C)c1 [Example 2]
- EC50 [1]: 1 to 10 µM
- EC50 (LXRα full length (FL)): 1 to 10 µM
- EC50 (LXRβ full length (FL)): 0.1 to 1 µM

SMILES: O=C(O)CS(=O)(=O)c1cccc(-c2ccc(CN(Cc3ccc(C(F)(F)F)o3)Cc3ccc(F)c4cccnc34)cc2)c1 [7/3]
- FRETβ [1]: B*
- EC50 (LXRα full length (FL)): 1 to 10 µM
- EC50 (LXRβ full length (FL)): 1 to 10 µM and 0.1 to 1 µM

SMILES: COc1cnc2cccnc2c1C(=O)N(Cc1ccc(C(F)(F)F)o1)Cc1ccc(-c2cccc(C(C)(C)C(=O)O)c2)cc1Cl [27/124]
- EC50 [1]: < 0.1 µM
- EC50 (LXRα full length (FL)): < 0.1 µM
- EC50 (LXRβ full length (FL)): < 0.1 µM

SMILES: Cc1nc2ccccn2c1C(=O)N(Cc1ccc(-c2cccc(C(C)(C)C(=O)O)c2)cc1)Cc1ccc(C(F)(F)F)o1 [27/118]
- EC50 [1]: 0.1 to 1 µM
- EC50 (LXRα full length (FL)): 0.1 to 1 µM
- EC50 (LXRβ full length (FL)): 0.1 to 1 µM

SMILES: O=C(O)CS(=O)(=O)c1cccc(-c2ccc(CN(Cc3ccc(C(F)(F)F)o3)Cc3cccc4ccccc34)cc2)c1 [7/2]
- EC50 [1]: 1 to 10 µM
- EC50 (LXRα full length (FL)): 0.1 to 1 µM
- EC50 (LXRβ full length (FL)): 0.1 to 1 µM

SMILES: CC(C)(C(=O)O)c1cccc(-c2ccc(CN(Cc3ccc(C(F)(F)F)o3)Cc3cccc4c3CCOC4)cc2)c1 [27/15]
- EC50 [1]: 0.1 to 1 µM
- EC50 (LXRα full length (FL)): < 0.1 µM
- EC50 (LXRβ full length (FL)): < 0.1 µM

SMILES: Cc1nc2ccccc2c(C(=O)N(Cc2ccc(C(F)(F)F)o2)Cc2ncc(-c3cccc(C(C)C(=O)O)c3)cc2Cl)c1C (stereo not drawn) [27/90]
- EC50 [1]: 0.1 to 1 µM
- EC50 (LXRα full length (FL)): < 0.1 µM
- EC50 (LXRβ full length (FL)): < 0.1 µM

SMILES: Cc1nc2ncccn2c1C(=O)N(Cc1ccc(-c2cccc(C(C)(C)C(=O)O)c2)cc1)Cc1ccc(C(F)(F)F)o1 [27/117]
- EC50 [1]: 1 to 10 µM
- EC50 (LXRα full length (FL)): 1 to 10 µM
- EC50 (LXRβ full length (FL)): 1 to 10 µM

SMILES: Cc1ccc2ccccc2c1C(=O)N(Cc1ccc(-c2cccc([C@H](C)C(=O)O)c2)cc1)Cc1cccc(C(F)(F)F)c1 [27/83]
- EC50 [1]: < 0.1 µM
- EC50 (LXRα full length (FL)): < 0.1 µM
- EC50 (LXRβ full length (FL)): < 0.1 µM

SMILES: CCNC(=O)c1ccc(CN(Cc2ncc(-c3cccc(C(C)C(=O)O)c3)cc2Cl)C(=O)c2c(C)c(C)nc3ccccc23)o1 (stereo not drawn) [27/99]
- EC50 [1]: 1 to 10 µM
- EC50 (LXRα full length (FL)): 1 to 10 µM
- EC50 (LXRβ full length (FL)): 1 to 10 µM
